What was measured:
[1] = tested on: A2058 (Melanoma, BRAF V600E, PTEN null) tumors; test: A2058 xenograft model, tumor growth inhibition; format: in vivo, nude mice (nu/nu); conditions: for sensitivity as single agent: A2058 xenograft, tumor growth delay, but not stasis or regression
Method: A2058 tumor-bearing animals were tested with both moderate and high doses of GDC-0973 (6 and 10 mg/kg, daily) and GDC-0941 (30 and 100 mg/kg, daily) as well as combinations of the lower and higher doses. […] Likewise, A2058 tumors are also moderately sensitive to single agent GDC-0941 with TGIs of 18% at 30 mg/kg and 56% at 100 mg/kg (FIGS. 3A and B, respectively).

[2] = tested on: MOLM-16 (AML) tumors; test: MOLM-16 xenograft model, tumor growth inhibition; format: in vivo, nude mice (nu/nu)
Method: (A) Treatment was then begun dosing Vehicle (open circles)), GDC-0941 (100 mg/kg, QD, PO; filled triangles), GDC-973 (10 mg/kg, QD, PO; filled squares), or the combination of GDC-0941 and GDC-0973 (filled diamonds, solid lines, n=7). […] Treatment was then begun dosing Vehicle (open circles,), GDC-0941 (100 mg/kg, QD, PO; filled triangles), GDC-0973 (5 mg/kg, QD, PO; filled squares), or the combination of GDC-0941 and GDC-0973 (filled diamonds). Caliper measurements of animals' tumors and animal weights were taken every 3-4 days throughout the study and tumor volumes were calculated (TV=[L×(W^2)]/2) and plotted +/−SEM. Percent tumor growth inhibition was calculated by calculating the area under the curve (AUC) of each treatment group relative to vehicle control. Student's t-tests were performed on day 21 data to determine significance by p-value.
MOLM-16 (AML) tumor-bearing animals were treated with either single agent GDC-0973 (10 mg/kg, daily) or GDC-0941 (100 mg/kg, daily) or the combination of the two.

[3] = tested on: FaDu (HNSCC) tumors; test: FaDu xenograft model, tumor growth inhibition; format: in vivo
Method: (A) Treatment was then begun dosing Vehicle (open circles)), GDC-0941 (100 mg/kg, QD, PO; filled triangles), GDC-973 (5 mg/kg, QD, PO; filled squares), or the combination of GDC-0941 and GDC-0973 (filled diamonds, solid lines, n=7). (B) the SKOV-4 (ovarian) Xenograph model. Treatment was then begun dosing Vehicle (open circles,), GDC-0941 (100 mg/kg, QD, PO; filled triangles), GDC-0973 (10 mg/kg, QD, PO; filled squares), or the combination of GDC-0941 and GDC-0973 (filled diamonds). Caliper measurements of animals' tumors and animal weights were taken every 3-4 days throughout the study and tumor volumes were calculated (TV=[L×(W^2)]/2) and plotted +/−SEM. Percent tumor growth inhibition was calculated by calculating the area under the curve (AUC) of each treatment group relative to vehicle control. Student's t-tests were performed on day 21 data to determine significance by p-value.
FaDu (HNSCC) tumor-bearing animals were treated with either single agent GDC-0973 (5 mg/kg, daily) or GDC-0941 (100 mg/kg, daily) or the combination of the two.

[4] = tested on: NCI-H2122 (NSCLC, KRAS G12C, PI3K/PTEN WT) tumors; test: NCI-H2122 xenograft model, tumor growth inhibition; conditions: for sensitivity as single agent: NCI-H2122 xenograft, tumor growth delay, but not stasis or regression
Method: NCI-H2122 cells (10×10^6 in Hanks Balance Salt Solution (HBSS)+Matrigel) were inoculated into nude mice (nu/nu) and tumors were allowed to establish to an average volume of ˜240 mm^3. […] Caliper measurements of animals' tumors and animal weights were taken every 3-4 days throughout the study and tumor volumes were calculated (TV=[L×(W^2)]/2) and plotted +/−SEM. Percent tumor growth inhibition was calculated by calculating the area under the curve (AUC) of each treatment group relative to vehicle control. Student's t-tests were performed on day 21 data to determine significance by p-value.
GDC-0973 and GDC-0941 were used as therapeutic agents in the NCI-H2122 (NSCLC, KRAS^G12C, PI3K/PTEN WT) and A2058 (Melanoma, BRAF^V600E, PTEN^null) xenograft models. […]

[5] = tested on: SKOV-3 (Ovarian) tumors; test: SKOV-3 xenograft model, tumor growth inhibition; format: in vivo; conditions: GDC-0941 single agent, 100 mg/kg daily
Method: (B) the […] (ovarian) Xenograph model.
SKOV-3 (Ovarian) tumor-bearing animals were treated with either single agent GDC-0973 (10 mg/kg, daily) or GDC-0941 (100 mg/kg, daily) or the combination of the two. […] The improved efficacy of the combination was statistically significant versus single agent GDC-0973 and GDC-0941 (p=0.0017 and p=0.0283, respectively, on Day 22).

[6] = GDC-0973 single agent, 10 mg/kg daily
[7] = GDC-0941 single agent, 100 mg/kg daily

## O=C(c1ccc(F)c(F)c1Nc1ccc(I)cc1F)N1CC(O)([C@@H]2CCCCN2)C1 [GDC-0973, [3,4-Difluoro-2-(2-fluoro-4-iodo-phenylamino)-phenyl]-((S)-3-hydroxy-3-piperidin-2-yl-azetidin-1-yl)-methanone]
[1]
  sensitivity as single agent: moderate sensitivity
[1]; GDC-0973 single agent, 6 mg/kg daily
  TGI: 41%
[1]; [6]
  TGI: 62%
[2]; [6]
  percent tumor growth inhibition (% TGI): 57%
[3]; GDC-0973 single agent, 5 mg/kg daily
  percent tumor growth inhibition (% TGI): 41%
[4]; GDC-0973 single agent, 5 mg/kg QD arm
  tumor growth inhibition (TGI, relative to vehicle control): 57%
[4]
  sensitivity as single agent: moderate sensitivity

## CS(=O)(=O)N1CCN(Cc2cc3nc(-c4cccc5[nH]ncc45)nc(N4CCOCC4)c3s2)CC1 [GDC-0941, 4-(2-(1H-indazol-4-yl)-6-((4-(methylsulfonyl)piperazin-1-yl)methyl)thieno[3,2-d]pyrimidin-4-yl)morpholine]
[1]
  sensitivity as single agent: moderate sensitivity
[1]; GDC-0941 single agent, 30 mg/kg daily
  TGI: 18%
[1]; [7]
  TGI: 56%
[2]; [7]
  percent tumor growth inhibition (% TGI): 40%
[3]; [7]
  percent tumor growth inhibition (% TGI): 33%
[4]; GDC-0941 single agent, 30 mg/kg arm (so in the source)
  tumor growth inhibition (TGI, relative to vehicle control): 73%
[4]
  sensitivity as single agent: moderate sensitivity
[5]
  % TGI: 51%

From US20110086837A1, “COMBINATIONS OF A PI3K INHIBITOR AND A MEK INHIBITOR” (Genentech, Inc., priority 2009, published 2011)
